The assay concerns the target T1, PTP99A D1 (Drosophila melanogaster, UniProt P35832).
T1 sequence (P35832 450-756): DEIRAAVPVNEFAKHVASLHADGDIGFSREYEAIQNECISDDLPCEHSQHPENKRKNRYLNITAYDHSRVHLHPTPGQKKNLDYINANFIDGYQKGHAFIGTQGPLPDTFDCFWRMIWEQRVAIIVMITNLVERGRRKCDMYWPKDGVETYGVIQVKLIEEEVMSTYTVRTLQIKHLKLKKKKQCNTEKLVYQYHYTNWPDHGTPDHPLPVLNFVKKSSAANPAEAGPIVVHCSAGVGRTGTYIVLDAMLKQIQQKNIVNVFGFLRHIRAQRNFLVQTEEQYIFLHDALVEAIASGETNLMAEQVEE
As to the kind of experiment: Phosphatase assay using pNPP, PTP99A D1. Further details: PTP99A 450-756; His tag (pET-15b or pET-22b); made in house; host or cells: E. coli BL21(DE3). Particulars: CGH buffer pH 6.5, 100 mM NaCl, 2 mM DTT. The assay is classed as biochemical. The protocol:
Phosphatase activity of the recombinant PTP domains was determined by using para-Nitrophenylphosphate (pNPP), a small molecule generic substrate, as well as phosphotyrosine containing peptides. The pNPP assay was performed as reported previously, with a modification in the buffer composition (25 mM Citrate, Glycine and HEPES (CGH), pH 6.5, 100 mM NaCl and 2 mM DTT). Phosphatase activity with the phosphotyrosine peptides was ascertained by the malachite green reaction as described for PTPs previously. Briefly, the reaction mixture comprised of 0.01 µM protein incubated with increasing concentrations of different peptides in 25 mM citrate buffer pH 6.0, 100 mM NaCl and 2 mM DTT for 15 min at 25°C. The reaction was stopped by the addition of the Biomol Green reagent (Enzo Life Sciences) and the colour developed after 20 min was quantified at 650 nm. For all the assays, kinetic constants for the steady state catalysis were obtained by fitting the reaction curves to the Michaelis-Menten equation using the nonlinear regression module of Sigma plot software (Systat Software, Inc.).
The tandem PTP domains of PTP99A (PTP99A D1D2) and DLAR (DLAR D1D2) , the individual PTP domains (D1 and D2) as well as the active site mutants were expressed in E. coli and were purified using the protocols described earlier (Figure 1a, Figure S1a, b & c). […]

Several values for one entry are separate records, joined by “and”; a condition that tells them apart may be missing. Equal entries are not always repeated.

A word on the Vmax: it is the rate approached at saturating substrate. For `O=[N+]([O-])c1ccc(OP(=O)(O)O)cc1` [pNPP, para-Nitrophenylphosphate], the Kcat was determined as 0.14 ± 0.01 s⁻¹. Also, the Vmax (Michaelis-Menten fit) is 0.22 µmol/min/mg and 0.22 ± 0.01 µmol/min/mg.
